Laboratory results: ChEMBL document CHEMBL1141564, “Meriolins (3-(pyrimidin-4-yl)-7-azaindoles): synthesis, kinase inhibitory activity, cellular effects, and structure of a CDK2/cyclin A/meriolin complex” (J Med Chem, 2008)

Experiments:
[1] = Inhibition of pig GSK-3-alpha/GSK-3beta; parameters: species or system Sus scrofa
[2] = molecular target: Cyclin-dependent kinase 2/cyclin A (Homo sapiens, UniProt P24941); test: Inhibition of human recombinant CDK2/cyclin A expressed in insect cells
[3] = molecular target: Cyclin-dependent kinase 5/CDK5 activator 1 (Homo sapiens, UniProt Q00535); test: Inhibition of recombinant GST-CDK5/p25 expressed in Escherichia coli
Cyclin-dependent kinase 5/CDK5 activator 1, sequence (Q00535 whole entry): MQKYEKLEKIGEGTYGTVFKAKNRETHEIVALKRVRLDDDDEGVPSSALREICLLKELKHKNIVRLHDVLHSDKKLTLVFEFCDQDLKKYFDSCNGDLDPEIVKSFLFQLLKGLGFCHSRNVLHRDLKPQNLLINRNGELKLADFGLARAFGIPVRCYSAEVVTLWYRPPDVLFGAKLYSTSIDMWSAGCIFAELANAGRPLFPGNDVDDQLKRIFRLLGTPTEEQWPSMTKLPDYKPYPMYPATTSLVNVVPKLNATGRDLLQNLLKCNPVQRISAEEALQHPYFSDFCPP
Cyclin-dependent kinase 5/CDK5 activator 1, sequence (Q15078 whole entry, further chain): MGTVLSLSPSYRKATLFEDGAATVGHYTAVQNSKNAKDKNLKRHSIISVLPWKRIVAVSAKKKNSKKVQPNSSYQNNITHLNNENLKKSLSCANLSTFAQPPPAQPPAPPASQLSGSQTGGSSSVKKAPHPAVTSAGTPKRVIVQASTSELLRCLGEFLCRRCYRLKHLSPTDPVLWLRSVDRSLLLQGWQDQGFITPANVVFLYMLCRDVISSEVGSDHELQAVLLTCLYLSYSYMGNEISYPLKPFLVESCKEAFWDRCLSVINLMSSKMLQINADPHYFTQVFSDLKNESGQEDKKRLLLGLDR

CDK9/cyclin T1 = CDK9/cyclin T1 (Homo sapiens, UniProt P50750); test: Inhibition of human recombinant CDK9/cyclin T expressed in insect cells
CDK9/cyclin T1, sequence (O60563 whole entry): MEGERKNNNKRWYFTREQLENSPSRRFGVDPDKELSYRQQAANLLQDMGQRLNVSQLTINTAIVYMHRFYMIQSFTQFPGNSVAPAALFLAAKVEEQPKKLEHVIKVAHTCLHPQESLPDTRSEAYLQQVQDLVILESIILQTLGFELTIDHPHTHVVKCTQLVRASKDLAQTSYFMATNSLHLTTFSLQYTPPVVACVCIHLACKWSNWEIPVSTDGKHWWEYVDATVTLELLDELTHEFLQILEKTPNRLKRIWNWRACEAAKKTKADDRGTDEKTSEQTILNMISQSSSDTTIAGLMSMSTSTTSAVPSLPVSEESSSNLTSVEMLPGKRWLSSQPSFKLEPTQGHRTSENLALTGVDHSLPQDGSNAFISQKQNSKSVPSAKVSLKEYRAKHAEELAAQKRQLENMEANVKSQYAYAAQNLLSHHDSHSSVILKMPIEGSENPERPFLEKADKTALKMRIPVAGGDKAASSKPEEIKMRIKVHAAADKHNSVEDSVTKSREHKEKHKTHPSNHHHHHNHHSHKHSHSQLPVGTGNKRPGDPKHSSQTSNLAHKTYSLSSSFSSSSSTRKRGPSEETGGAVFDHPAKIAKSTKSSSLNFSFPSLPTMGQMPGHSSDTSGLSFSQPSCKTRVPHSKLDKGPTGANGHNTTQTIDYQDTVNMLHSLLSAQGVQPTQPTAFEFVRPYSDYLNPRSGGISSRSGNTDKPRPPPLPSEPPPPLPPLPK
CDK9/cyclin T1, sequence (P50750 whole entry): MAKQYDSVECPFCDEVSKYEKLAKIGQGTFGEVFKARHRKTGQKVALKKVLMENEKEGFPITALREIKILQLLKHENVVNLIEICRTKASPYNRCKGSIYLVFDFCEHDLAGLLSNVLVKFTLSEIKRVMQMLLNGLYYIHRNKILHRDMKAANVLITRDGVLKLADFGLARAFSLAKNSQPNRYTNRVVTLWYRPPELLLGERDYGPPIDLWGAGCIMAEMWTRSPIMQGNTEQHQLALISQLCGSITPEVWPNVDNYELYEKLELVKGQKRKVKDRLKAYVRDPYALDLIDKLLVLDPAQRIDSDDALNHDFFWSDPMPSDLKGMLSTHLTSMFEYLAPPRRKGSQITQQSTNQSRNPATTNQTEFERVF

SH-SY5Y = test: cells; conditions: Homo sapiens, 48 h
Description: Survival of human SHSY5Y cells after 48 hrs by MTS reduction assay

HEK293 = test: cells; conditions: Homo sapiens, HEK293, 48 h
Description: Survival of human HEK293 cells after 48 hrs by MTS reduction assay

GBM = test: cells; conditions: Homo sapiens, 48 h
Description: Survival of human GBM cells after 48 hrs by neutral red reduction assay

KMS-11 = test: cells; conditions: Homo sapiens, KMS-11, 48 h
Description: Survival of human KMS11 cells after 48 hrs by neutral red reduction assay

LS174T = test: cells; conditions: Homo sapiens, 48 h
Description: Survival of human LS174T cells after 48 hrs by MTS reduction assay

[4] = Inhibition of pig CK1delta/CK1epsilon; parameters: species or system Sus scrofa
[5] = Inhibition of starfish oocyte CDK1/cyclin B; parameters: species or system Marthasterias glacialis
HCT-116 [6] = test: Antiproliferative activity against human HCT116 cells after 5 days; assay type: functional, cell-based; conditions: HCT-116, 120 h
HCT-116 [7] = test: Antiproliferative activity against human HCT116 cells assessed as reduction in diameter of spheroids at 1 uM after 5 days; assay type: functional
[8] = molecular target: Dual specificity tyrosine-phosphorylation-regulated kinase 1A (Rattus norvegicus, UniProt Q63470); test: Inhibition of rat recombinant GST-DYRK1A expressed in Escherichia coli

Compound	IC50 [1] [nM]	IC50 [2] [nM]	IC50 [3] [nM]	IC50 (CDK9/cyclin T1) [nM]	IC50 (SH-SY5Y) [nM]	IC50 (HEK293) [nM]	IC50 (GBM) [nM]	IC50 (KMS-11) [nM]	IC50 (LS174T) [nM]	IC50 [4] [nM]	IC50 [5] [nM]	IC50 (HCT-116 [6]) [nM]	Activity (HCT-116 [7]) [um]	IC50 [8] [nM]
Oc1ccnc2[nH]cc(-c3ccncn3)c12	1800	700	700	250	28000	84000	> 20000	> 15000	23500	–	–	–	–	–
COc1ccnc2[nH]cc(-c3ccncn3)c12	1100	800	1300	220	10200	35500	10000	10000	10000	600	–	–	–	–
COc1ccnc2[nH]cc(-c3ccnc(N)n3)c12 [MERIOLIN 3]	230	11	170	6	73	240	140	120	130	200	170	63	720	–
CC(C)Oc1ccnc2[nH]cc(-c3ccnc(N)n3)c12 [MERIOLIN 6]	21	–	3	5.6	–	89	80	–	60	140	8	–	–	–
Nc1nccc(-c2c[nH]c3nccc(O)c23)n1 [MERIOLIN 2]	400	18	50	18	410	960	1210	600	1060	–	57	–	–	–
Nc1nccc(-c2c[nH]c3ncccc23)n1 [MERIOLIN 1]	–	–	510	26	670	2200	1380	1270	1500	–	–	–	–	–
Cn1cc(-c2ccnc(N)n2)c2c(O)ccnc21 [MERIOLIN 8]	4600	1800	5500	1200	> 30000	> 30000	> 20000	> 20000	> 30000	2300	–	–	–	–
CCCOc1ccnc2[nH]cc(-c3ccnc(N)n3)c12 [MERIOLIN 5]	25	3	3	5.6	26	85	80	40	47	200	7	–	–	–
Nc1nccc(-c2c[nH]c3nccc(Cl)c23)n1	2000	60	230	50	1920	10800	10000	7500	> 10000	3000	240	–	–	–
Nc1nccc(-c2c[nH]c3nc(Br)ccc23)n1	30000	1300	680	1000	43000	> 100000	> 20000	> 15000	> 30000	–	2200	–	–	300
COc1ccnc2c1c(-c1ccnc(N)n1)cn2C [MERIOLIN 9]	–	–	73000	–	–	–	–	–	–	–	25000	–	–	–
CCOc1ccnc2[nH]cc(-c3ccnc(N)n3)c12 [MERIOLIN 4]	30	7	5	7	81	220	130	60	100	100	10	–	–	–
COCCOc1ccnc2[nH]cc(-c3ccnc(N)n3)c12 [MERIOLIN 7]	63000	> 10000	14000	5300	> 100000	> 100000	> 20000	> 20000	> 30000	100000	35000	–	–	> 10000
COc1ccnc2[nH]cc(-c3ccnc(SC)n3)c12	7000	2100	2300	1100	> 100000	66000	> 20000	> 20000	> 30000	600	1800	–	–	–
